Here are results for 24 compounds from ChEMBL document CHEMBL4364320, “An insight into the medicinal perspective of synthetic analogs of indole: A review” (Eur J Med Chem, 2019).

≈ marks a conversion by molar mass, not a printed value.

Test [1] concerns Human immunodeficiency virus 1. Kind of test: Antiviral activity against wild type HIV1 infected in human MT4 cells. Type of test: functional, organism-based. To be noted: Human immunodeficiency virus 1, MT4.
For test [2], the target named is Sodium-dependent serotonin transporter (Homo sapiens, UniProt P31645). Kind of test: Inhibition of 5HT transporter (unknown origin).
Sequence of Sodium-dependent serotonin transporter (P31645 whole entry): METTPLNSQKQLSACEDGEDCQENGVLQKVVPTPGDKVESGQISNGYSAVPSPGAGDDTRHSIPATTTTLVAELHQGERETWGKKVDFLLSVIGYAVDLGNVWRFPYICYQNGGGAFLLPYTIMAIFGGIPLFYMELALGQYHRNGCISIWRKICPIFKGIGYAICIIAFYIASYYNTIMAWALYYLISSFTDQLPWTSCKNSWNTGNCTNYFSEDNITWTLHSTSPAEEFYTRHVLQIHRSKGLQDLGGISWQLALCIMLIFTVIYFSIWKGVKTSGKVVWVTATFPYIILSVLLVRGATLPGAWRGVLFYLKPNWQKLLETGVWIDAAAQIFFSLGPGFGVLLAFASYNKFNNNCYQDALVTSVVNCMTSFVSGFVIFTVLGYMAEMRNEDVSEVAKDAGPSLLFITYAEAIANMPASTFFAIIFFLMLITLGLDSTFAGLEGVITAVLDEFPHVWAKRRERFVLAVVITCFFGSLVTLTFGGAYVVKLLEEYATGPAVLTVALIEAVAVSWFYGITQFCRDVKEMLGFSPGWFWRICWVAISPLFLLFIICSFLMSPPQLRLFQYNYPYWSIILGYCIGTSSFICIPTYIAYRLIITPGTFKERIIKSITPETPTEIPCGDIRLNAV
The next test has as its system Plasmodium falciparum. Kind of test: Antiplasmodial activity against chloroquine-resistant Plasmodium falciparum Dd2. Type of test: functional, organism-based.
A short description of test [3]: Inhibition of TNFalpha-induced NFkappaB activation in HEK293 cells preincubated for 6 hrs followed by TNFalpha addition by luciferase reporter gene assay. The conditions noted are these: Homo sapiens. In kind it is cell-based.
The subject of test [4] is RAW264.7. Kind of test: Inhibition of LPS-induced nitric oxide production in mouse RAW264.7 cells preincubated for 15 mins followed by LPS stimulation measured after 20 hrs by griess assay. Type of test: functional, cell-based. For orientation: The Griess reaction detects nitrite, a stable product of nitric oxide.
Test [5] concerns Human immunodeficiency virus 1. The experiment in a line: Antiviral activity against wild type HIV1 3B infected in human MT2 cells after 3 days by BrightGlo luciferase reporter gene assay. In kind it is functional, organism-based. To be noted: Human immunodeficiency virus 1, 3B, MT2, 72 h.
For test [6], the system named is Human immunodeficiency virus 1. The experiment in a line: Antiviral activity against HIV1 infected in human MT4 cells. Type of test: functional, organism-based. The conditions noted are these: Human immunodeficiency virus 1, MT4.
Test [7] has as its system Mycobacterium tuberculosis. The experiment in a line: Antimycobacterial activity against Mycobacterium tuberculosis. In kind it is functional.
For test [8], the system named is Mycobacterium tuberculosis. The experiment in a line: Antimycobacterial activity against drug-sensitive Mycobacterium tuberculosis. In kind it is functional.
Test [9] concerns the target T1, Dihydrofolate reductase (Homo sapiens, UniProt P00374).
T1 sequence (P00374 whole entry): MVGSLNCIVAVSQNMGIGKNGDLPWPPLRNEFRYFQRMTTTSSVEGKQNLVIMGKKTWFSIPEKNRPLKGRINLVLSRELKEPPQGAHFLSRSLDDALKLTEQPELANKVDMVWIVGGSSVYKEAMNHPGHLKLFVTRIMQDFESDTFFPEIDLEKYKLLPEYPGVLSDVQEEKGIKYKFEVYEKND
The experiment in a line: Inhibition of human DHFR.

Test [10] concerns the target T2, Dihydrofolate reductase (Mycobacterium tuberculosis, UniProt P9WNX1).
T2 sequence (P9WNX1 whole entry): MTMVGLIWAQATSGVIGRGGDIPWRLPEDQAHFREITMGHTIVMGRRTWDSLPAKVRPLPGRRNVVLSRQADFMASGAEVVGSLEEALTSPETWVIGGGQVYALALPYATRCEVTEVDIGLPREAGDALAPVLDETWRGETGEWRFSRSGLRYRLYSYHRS
The experiment in a line: Inhibition of Mycobacterium tuberculosis H37Rv DHFR.

Test [11] concerns RAW264.7. Kind of test: Inhibition of nitric oxide production in mouse RAW264.7 cells by griess assay. Type of test: functional, cell-based.
Test [12] has as its target T3, Prostaglandin G/H synthase 2 (Homo sapiens, UniProt P35354).
T3 sequence (P35354 whole entry): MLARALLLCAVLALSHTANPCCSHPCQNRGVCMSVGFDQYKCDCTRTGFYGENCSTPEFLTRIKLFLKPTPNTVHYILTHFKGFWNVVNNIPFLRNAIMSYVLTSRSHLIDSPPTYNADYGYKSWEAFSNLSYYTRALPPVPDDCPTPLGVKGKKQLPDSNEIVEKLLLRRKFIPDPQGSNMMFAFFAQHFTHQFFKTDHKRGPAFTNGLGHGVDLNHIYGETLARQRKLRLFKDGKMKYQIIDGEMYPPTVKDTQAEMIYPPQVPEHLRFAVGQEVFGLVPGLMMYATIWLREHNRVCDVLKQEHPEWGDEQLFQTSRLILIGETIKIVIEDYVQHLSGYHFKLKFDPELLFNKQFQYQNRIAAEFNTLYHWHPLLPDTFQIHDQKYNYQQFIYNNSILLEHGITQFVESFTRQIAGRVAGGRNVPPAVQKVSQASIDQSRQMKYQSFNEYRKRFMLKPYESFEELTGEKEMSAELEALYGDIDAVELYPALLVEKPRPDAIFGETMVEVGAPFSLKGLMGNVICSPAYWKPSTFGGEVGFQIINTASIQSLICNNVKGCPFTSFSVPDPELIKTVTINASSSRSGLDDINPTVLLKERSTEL
Kind of test: Inhibition of recombinant human COX2 assessed as decrease in PGE2 release after 10 mins by EIA.

A further test deals with Mus musculus. Kind of test: Antidiabetic activity in db/db mouse assessed as reduction in serum glucose level at 10 to 30 mg/kg, po after 1 week relative to control. Type of test: functional. Set-up: scale not given: the % may be the effect or the level left.
Test [13] relates to Human immunodeficiency virus 1. The experiment in a line: Antiviral activity against HIV1 infected in human C8166 cells. Type of test: functional, organism-based. To be noted: Human immunodeficiency virus 1, C8166.

As for `COP(=O)(c1cc(C)cc(/C=C/C#N)c1)c1c(C(N)=O)[nH]c2ccc(Cl)cc12` (stereo not drawn), half-maximal inhibition in test [1] (IC50) was put at 0.08 nM. In the case of `Fc1cc2c(c(OCCNCCc3c[nH]c4ccc(F)cc34)c1)OCCC2`, in test [2], the Ki – broadly, a dissociation constant, usually derived from enzyme kinetics or from competition with a known ligand – was determined as 5 nM.

Turning to `CC1=C[C@@H]2c3c(CCN(C)C)c4ccccc4n3[C@@H](c3[nH]c4ccccc4c3CCN(C)C)[C@@H]2C(C)(C)C1`, the IC50 (as a rule, the concentration needed to halve the response being measured) in the test with Plasmodium falciparum came out at 80 nM. Consider `O/N=C/c1c(-c2ccccc2)[nH]c2ccccc12`, for which the IC50 in [3] was found to be 6900 nM; with RAW264.7 [4], 4400 nM. `CCOC(=O)Nc1[nH]c2ccc(Br)cc2c1C(C)(O)C(F)(F)F` (stereo not drawn) had an IC50 in test [5] of 3 nM.

As for `Cc1cc(C)nc(NS(=O)(=O)c2ccc(/N=C3\C(=O)Nc4ccccc43)cc2)n1`, a half-maximal effect in test [6] (EC50) was put at 8 µg/mL. On to `N#Cc1ccc(C2SCC(=O)N2NC(=O)c2[nH]c3ccc(F)cc3c2-c2ccccc2)cc1` (stereo not drawn), for which the MIC99 (in general, the lowest concentration that inhibits either 99% of growth or 99% of the strains tested, depending on the study) in test [7] was determined as 6.25 µg/mL (≈ 13.7 µM).

Turning to `CNCCc1c(/C=C/[C@@]2(C)C[C@H](C=C(C)C)c3c(CCNC)c4ccccc4n32)[nH]c2ccccc12`, in the test on Plasmodium falciparum, the IC50 fell in the range of 80 to 1420 nM. Still for that read-out and setting: to `CNCCc1c([C@H]2[C@H]3[C@H](C=C(C)CC3(C)C)c3c(CCNC)c4ccccc4n32)[nH]c2ccccc12` belongs 80 to 1420 nM. On to `C[C@@H]1[C@H]2C[C@@H](C[C@H]1NC(=O)c1cc3c(F)cc(F)cc3[nH]1)C2(C)C`, for which the MIC (in general, the least concentration at which growth counts as inhibited) in [8] amounted to 0.012 µM (≈ 3.99 ng/mL). Compound `CC(C)=C[C@H]1C[C@](C)(/C=C/c2[nH]c3ccccc3c2CCN(C)C)n2c1c(CCN(C)C)c1ccccc12` showed an IC50 with Plasmodium falciparum of 80 to 1420 nM. In the case of `CCCCC(O)(c1c(NC(=O)OCC)[nH]c2ccc(Br)cc12)C(F)(F)F` (stereo not drawn), the IC50 in test [5] was 3 nM. As for `CC(=O)c1c(C)n(Cc2ccccc2)c2ccc(OCCCC(=O)O)cc12`, the results for the IC50 at Dihydrofolate reductase [9] and against Dihydrofolate reductase [10] were 980000 nM and 150000 nM, respectively. As to `COc1ccc2cc(-c3cc4ccccc4[nH]3)ccc2c1`, inhibition in [3] was half-maximal at 600 nM (IC50). With `CC(=O)N1C(=O)/C(=N\c2ccc(S(=O)(=O)Nc3nc(C)cc(C)n3)cc2)c2ccccc21`, the EC50 (commonly the concentration giving half of the maximal effect) in test [6] turned out to be 8000 nM. `CC(C)=C[C@H]1C[C@@](C)(/C=C/c2[nH]c3ccccc3c2CCN(C)C)n2c1c(CCN(C)C)c1ccccc12`: the IC50 in the test on Plasmodium falciparum lay within 80 to 1420 nM. For `C#CCc1cn(C)c2c(O)cccc12`, the IC50 in the test on RAW264.7 [11] turned out to be 39800 nM; in test [12], 6220 nM. `O=C(NN1C(=O)CSC1c1ccc([N+](=O)[O-])cc1)c1[nH]c2ccc(F)cc2c1-c1ccccc1` (stereo not drawn) registered an MIC99 in test [7] of 6.25 µg/mL (≈ 13.1 µM).

`N#Cc1c(-c2ccccc2)[nH]c2ccccc12`: the IC50 in test [3] is 8500 nM; in the test with RAW264.7 [4], 4800 nM. Take `Cc1c(CC(=O)O)c2cc(O)ccc2n1C(=O)c1ccc(Cl)cc1`: the Activity in the test with Mus musculus came out at 44.3%.

In the test on Plasmodium falciparum, `C[C@@H]1CC[C@H]2[C@@H](C)C(=O)O[C@@H]3O[C@@]4(C)CC[C@@H]1[C@]32OO4` [ARTEMISININ] gave an IC50 of 80 to 1420 nM. In test [7], `CO[C@H]1/C=C/O[C@@]2(C)Oc3c(C)c(O)c4c(O)c(c(/C=N/N5CCN(C)CC5)c(O)c4c3C2=O)NC(=O)/C(C)=C\C=C\[C@H](C)[C@H](O)[C@@H](C)[C@@H](O)[C@@H](C)[C@H](OC(C)=O)[C@@H]1C` [RIFAMPIN] registered an MIC99 of 0.25 µg/mL (≈ 0.304 µM). With `CN(CCOc1ccc(CC2SC(=O)NC2=O)cc1)c1ccccn1` (stereo not drawn) [ROSIGLITAZONE], the Activity in the test on Mus musculus is 66%. On to `Cc1cn([C@H]2C[C@H](N=[N+]=[N-])[C@@H](CO)O2)c(=O)[nH]c1=O` [ZIDOVUDINE], for which the EC50 in test [13] was determined as 1100 nM.
